Reference: patent US9234186B2, “Star-worm luciferase” (OLYMPUS CORPORATION, priority 2011, dated 2016)
Read-outs that look alike come from different tables or passages of the source.

Key:
[1] = test system: Diplocladon sp. 1 star-worm luciferase, wild type, SEQ ID NO: 1; assay: Km determination for star-worm luciferase (luminescence kinetics); type: biochemical; settings: 0.1 M Tris-HCl pH 8.0, 8 mM MgSO4
Procedure: The measurements were carried out ten times for each sample, and the average of absorbance was used for the calculation.
A solution of 0.1 M Tris-HCl (pH 8.0) containing each purified luciferase, 4 mM of ATP, and 8 mM of MgSO4 was connected to the standard pump of a luminometer, and measurement was carried out at the same time of adding 50 μl of the solution to the well. A Luminescensor (ATTO) was used for the measurement. Measurement was repeated three times for each luciferin concentration.
The peak intensity of the obtained photon count value was plotted with respect to luciferin concentration S, defining the initial rate as V. The plots were subjected to curve fitting of Michaelis Menten type, thereby giving Km values. The curve fitting was performed by a nonlinear least-squares method, and search of parameter was performed by a Newton method.
Measurement of Km Value with Respect to ATP
Under various ATP concentrations, the luminous intensity of the obtained luciferase was measured. Based on the results, Km values was determined with respect to ATP.
Various eight types of ATP solutions were prepared by adding ATP to 0.1 M Tris-HCl (pH 8.0). These solutions contain ATP at final concentration of 10, 20, 40, 80, 160, 320, 480, or 640 μM. These ATP solutions were each injected into a 96-well microplate at a volume of 50 μl. […]

[2] = test system: CBR luciferase derived from click beetle; assay: Km determination for known luciferase CBR (luminescence kinetics); type: biochemical; settings: 0.1 M Tris-HCl pH 8.0; enzyme solution with 1 mM D-luciferin, 8 mM MgSO4; read-out: Km for ATP
HeLa cell = assay: Luminous intensity expressed in HeLa cell, star-worm luciferase vs P. pyralis luciferase (Example 3); type: cell-based; settings: 2 mM D-luciferin, 25° C., 90 minutes, normalised to sea pansy luciferase internal control, codon-optimized gene with Kozak sequence
Procedure: The luminous intensities when expressed in a HeLa cell were compared between a star-worm luciferase and P. pyralis luciferase.
Regarding a star-worm luciferase, Kozak sequence was added to a nucleic acid optimized for expression in a mammalian cell and then inserted into between SgfI site and PmeI site of a multicloning site of pF9A CMV hRLuc neo Flexi vector (Promega). According to addition of Kozak sequence, an amino acid encoded by the codon immediately after initiation codon, proline, was changed to alanine. […] For the purpose of comparison, Kozak sequence was added to a known P. pyralis nucleic acid containing an optimized gene for expression in a mammalian cell, and then inserted into apF9A CMV hRLuc neo Flexi vector in a similar manner.
Each of the two types of plasmids obtained by the aforementioned manner was introduced into HeLa cells by means of lipofection method, and 24 hours later the cells were washed with PBS. […] According to the figure, the star-worm luciferase induced luminescence having 1.5 times the luminous intensity in a HeLa cell of that induced by P. Pyralis luciferase.

## Nc1ncnc2c1ncn2[C@@H]1O[C@H](COP(=O)(O)OP(=O)(O)OP(=O)(O)O)[C@@H](O)[C@H]1O [ATP, Adenosine triphosphate]
[1]; enzyme solution with 1 mM D-luciferin, read-out: Km for ATP
  Km: 110 µM
[2]
  Km: 47 µM

## O=C(O)[C@H]1CSC(c2nc3ccc(O)cc3s2)=N1 [D-luciferin]
[1]; read-out: Km for D-luciferin, enzyme solution with 4 mM ATP
  Km: 38.9 µM

B1: star-worm luciferase: Novel luciferase cloned from star-worm Diplocladon sp. 1, amino acid sequence SEQ ID NO: 1 (protein, listed as Diplocladon sp.)
chain: MPNEIVLHGAKPRDPLDLGTAGSQLFRSLTQFSYLREALVDAHTEQVVSYADILENSCRLAICFEKYGLRQNSVIAVCSENSAIFFYPVIAALYMGIITATVNDNYTERELFDTLNISKPELVFCSKKAIKNLTQLKNHIDFIKKLVVLDSDEDIGEVESLANFMKRYSESVIDVRNFKPRDFDAKEQVALIMSSSGTTGLPKGVVLTHRNLSVRFVHCKDPLFGTRTVPSTSILSIVPFHHAFGMFTTLSYFIVGLRVILLKRFEEEFFLSTIEKYRIPTIVLAPPVMVFLAKSPLVDQYDVSSIREVATGGAPVGIEVAEAVAKRLKINGILQGYGLTETCCAVLITPHDHVKTGSTGKVAPYVQAKVVDLSTGKSLGPNKRGELCFKSEIIMKGYFNNIKATEEAIDKEGWLHSGDVGYYDEDGHFYVVDRLKELIKYKGYQVAPAELEWLLLQHPAIKDAGVTGVPDEAAGELPGACIVLEEGHSLTEQEVIEYVAERVSPTKRIRGGVVFVDDIPKGATGKLVRSELRRMLSQKKSKL
HeLa cell
  luminous intensity relative to that induced by P. pyralis firefly luciferase: 1.5 times
